Assay results taken from article PMC11239673, “Structural basis for the bi-specificity of USP25 and USP28 inhibitors” (EMBO Reports, 2024).
Where “and” joins values, the source holds several entries; their conditions need not be identical. Equal values may be shown once. Read-outs that look alike come from different tables or passages of the source.

Experiments:
USP25Δtip Q322A = target: T1, USP25Δtip Q322A (Homo sapiens, UniProt Q9UHP3, DEL465-537/INS464GSGSGS/Q322A); assay: Ub-Rho110 dose–response assay, USP25Δtip Q322A; format: biochemical
T1 construct: 6xHis or thioredoxin-6xHis (N, cleaved yes); made in house; host or cells: E. coli BL21star (DE3)
T1 sequence (Q9UHP3 with tags, fused parts or gaps Q322A/DEL465-477/P478G/DEL482-535/A536G/P537S limits assumed): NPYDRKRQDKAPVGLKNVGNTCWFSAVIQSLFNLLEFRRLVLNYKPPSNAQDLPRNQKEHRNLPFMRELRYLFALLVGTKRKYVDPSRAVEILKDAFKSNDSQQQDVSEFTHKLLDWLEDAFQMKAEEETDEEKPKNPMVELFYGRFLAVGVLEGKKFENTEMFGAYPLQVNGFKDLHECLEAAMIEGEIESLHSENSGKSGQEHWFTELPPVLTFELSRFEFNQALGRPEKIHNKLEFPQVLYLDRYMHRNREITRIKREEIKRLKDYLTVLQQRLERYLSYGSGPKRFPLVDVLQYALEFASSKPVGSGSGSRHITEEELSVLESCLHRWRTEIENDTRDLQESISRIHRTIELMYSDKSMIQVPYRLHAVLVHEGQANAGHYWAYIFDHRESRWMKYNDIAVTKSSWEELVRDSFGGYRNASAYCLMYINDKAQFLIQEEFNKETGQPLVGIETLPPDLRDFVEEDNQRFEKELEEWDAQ

USP28Δtip E366A = target: T2, USP28Δtip E366A (Homo sapiens, UniProt Q96RU2, E366A/INS458SGSG); assay: Ub-Rho110 dose–response assay, USP28Δtip E366A; format: biochemical; settings: for IC50: USP28 - E366A
T2 sequence (Q96RU2 with tags, fused parts or gaps E366A/INS458SGSG): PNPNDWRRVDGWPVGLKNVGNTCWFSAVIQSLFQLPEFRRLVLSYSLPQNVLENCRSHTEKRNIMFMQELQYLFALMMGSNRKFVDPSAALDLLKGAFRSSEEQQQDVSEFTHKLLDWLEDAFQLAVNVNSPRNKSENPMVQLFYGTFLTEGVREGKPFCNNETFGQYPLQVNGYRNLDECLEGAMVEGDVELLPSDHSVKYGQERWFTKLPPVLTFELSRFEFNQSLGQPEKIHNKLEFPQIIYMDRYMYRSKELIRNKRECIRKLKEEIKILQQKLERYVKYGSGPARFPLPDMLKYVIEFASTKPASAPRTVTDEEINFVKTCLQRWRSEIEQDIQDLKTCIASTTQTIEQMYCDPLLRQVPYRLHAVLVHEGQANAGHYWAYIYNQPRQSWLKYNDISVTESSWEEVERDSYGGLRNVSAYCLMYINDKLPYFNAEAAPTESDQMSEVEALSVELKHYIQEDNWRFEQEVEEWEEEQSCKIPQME

USP25fl = target: T3, USP25fl (Homo sapiens, UniProt Q9UHP3); assay: SEC-MALS analysis of the oligomeric state of USP25fl after inhibitor incubation; settings: for MW [kDa]: SEC-MALS molar mass of USP25-fl
T3 sequence (Q9UHP3 1-1055): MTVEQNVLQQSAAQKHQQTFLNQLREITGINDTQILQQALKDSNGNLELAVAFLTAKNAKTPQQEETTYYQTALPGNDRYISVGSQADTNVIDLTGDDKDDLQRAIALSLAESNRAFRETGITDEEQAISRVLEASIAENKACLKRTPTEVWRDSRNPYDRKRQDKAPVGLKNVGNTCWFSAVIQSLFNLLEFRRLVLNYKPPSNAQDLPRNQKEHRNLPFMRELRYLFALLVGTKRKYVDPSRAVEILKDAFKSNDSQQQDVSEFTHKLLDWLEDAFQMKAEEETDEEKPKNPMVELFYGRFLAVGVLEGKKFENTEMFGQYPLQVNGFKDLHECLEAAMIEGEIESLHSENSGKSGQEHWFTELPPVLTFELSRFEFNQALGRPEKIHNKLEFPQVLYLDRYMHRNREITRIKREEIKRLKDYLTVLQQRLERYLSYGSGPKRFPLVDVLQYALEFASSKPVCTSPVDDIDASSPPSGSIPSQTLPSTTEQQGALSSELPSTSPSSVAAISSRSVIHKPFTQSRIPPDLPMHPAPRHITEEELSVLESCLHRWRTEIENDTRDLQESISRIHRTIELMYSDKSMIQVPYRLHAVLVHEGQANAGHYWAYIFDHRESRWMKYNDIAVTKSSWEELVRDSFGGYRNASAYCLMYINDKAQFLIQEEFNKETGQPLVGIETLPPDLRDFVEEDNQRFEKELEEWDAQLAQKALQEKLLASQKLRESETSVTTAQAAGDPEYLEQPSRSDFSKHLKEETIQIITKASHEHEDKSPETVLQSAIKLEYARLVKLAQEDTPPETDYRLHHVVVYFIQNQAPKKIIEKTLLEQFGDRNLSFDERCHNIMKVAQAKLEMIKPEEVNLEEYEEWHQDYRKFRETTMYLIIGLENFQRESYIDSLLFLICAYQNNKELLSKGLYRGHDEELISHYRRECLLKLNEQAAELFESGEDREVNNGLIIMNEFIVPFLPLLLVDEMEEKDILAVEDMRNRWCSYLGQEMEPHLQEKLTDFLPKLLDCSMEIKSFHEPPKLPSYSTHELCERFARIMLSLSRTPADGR

USP28Δtip Q315A = target: T4, USP28Δtip Q315A (Homo sapiens, UniProt Q96RU2, INS458SGSG/Q315A); assay: Ub-Rho110 dose–response assay, USP28Δtip Q315A; format: biochemical; settings: for IC50: USP28 - Q315A
T4 sequence (Q96RU2 with tags, fused parts or gaps Q315A/INS458SGSG): T2 sequence (Q96RU2 with tags, fused parts or gaps E366A/INS458SGSG)

[1] = mean of replicates, read-out: IC50, mean and SD
[2] = single replicates, read-out: IC50 of each replicate curve (unlabelled line above mean and SD)
[3] = 20 µM USP25, 60 µM inhibitor, mean of experiments
[4] = 20 µM USP25, 60 µM inhibitor, single experiments
[5] = read-out: relative inhibition [%] - USP28 - Q315A

Cc1ccc2c(N)c(C(=O)NC3CCc4cc(N5CC6CCC(C5)N6)ccc4C3)sc2n1 (stereo not shown) [FT206]
inhibition at 100 µM (USP25Δtip Q322A; inhibitor 100.00 µM, single replicates, read-out: relative inhibition [%] - USP25 - Q322A): 94% | t-test vs. USP25 WT control - Q322A (USP25Δtip Q322A; p value, inhibitor IC50 on USP25 Q322A compared with USP25 WT): 8.787E-03 | inhibition at 11.11 µM (USP25Δtip Q322A; read-out: relative inhibition [%] - USP25 - Q322A, inhibitor 11.11 µM, single replicates): 85.2% | inhibition at 33.33 µM (USP25Δtip Q322A; read-out: relative inhibition [%] - USP25 - Q322A, inhibitor 33.33 µM, single replicates): 88.7% | t-test vs. USP28 WT control - E366A (USP28Δtip E366A): 4.894E-04 | IC50 (USP28Δtip E366A; [1]): 17.3 µM | IC50 (USP28Δtip E366A; [2]): 14.5 µM and 15.5 µM and 12.1 µM and 14.2 µM and 25.7 µM and 21.9 µM | inhibition at 100 µM (USP28Δtip E366A; read-out: relative inhibition [%] - USP28 - E366A): 64.6% | avg. Mol mass (10.5-14.5 ml), mean (USP25fl; 20 µM USP25, 60 µM inhibitor, mean of 4 experiments): 298.950 | dimer (fraction), mean (USP25fl; [3]): 0.777 | tetramer (fraction), mean (USP25fl; [3]): 0.223 | avg. Mol mass (10.5-14.5 ml) (USP25fl; [4]): 298.000 and 299.300 and 295.500 and 303.000 | dimer (fraction) (USP25fl; [4]): 0.781 and 0.775 and 0.791 and 0.760 | tetramer (fraction) (USP25fl; [4]): 0.219 and 0.225 and 0.209 and 0.240 | % dimer (USP25fl; 20 µM USP25fl, 60 µM inhibitor, 45 min, average of ≥3 experiments ± SD, DMSO control 26.2 ± 1.5): 77.7 ± 1.1% | % tetramer (USP25fl; 20 µM USP25fl, 60 µM inhibitor, 45 min, average of ≥3 experiments ± SD, DMSO control 73.8 ± 1.5): 22.3 ± 1.1% | Ø Mw (USP25fl; 20 µM USP25fl, 60 µM inhibitor, 45 min, average of ≥3 experiments ± SD, DMSO control 424.7 ± 3.8): 299.0 ± 2.7 kDa | MW [kDa] (USP25fl; 10 µM USP25-fl + 5 µM inhibitor, elution volume V [mL] in the cell to the left): 638.16 kDa and 634.82 kDa and 630.15 kDa and 628.44 kDa | MW [kDa] (USP25fl; 10 µM USP25-fl + 10 µM inhibitor, elution volume V [mL] in the cell to the left): 647.07 kDa and 645.88 kDa and 640.88 kDa and 638.88 kDa | MW [kDa] (USP25fl; 10 µM USP25-fl + 20 µM inhibitor, elution volume V [mL] in the cell to the left): 747.51 kDa and 739.67 kDa and 732.41 kDa and 732.02 kDa | dRI (USP25fl; SEC-MALS trace, 10 µM USP25-fl + 20 µM inhibitor, elution volume V [mL] in the cell to the left): 3.84E-07 and 3.46E-07 and 3.10E-07 and 2.78E-07 | t-test vs. USP28 WT control - Q315A (USP28Δtip Q315A): 6.868E-03 | IC50 (USP28Δtip Q315A; [1]): 360 nM | IC50 (USP28Δtip Q315A; [2]): 492 nM and 375 nM and 444 nM and 267 nM and 246 nM | inhibition at 11.11 µM (USP28Δtip Q315A; [5]): 96.4% | inhibition at 33.33 µM (USP28Δtip Q315A; [5]): 97.8% | inhibition at 100 µM (USP28Δtip Q315A; [5]): 98.7% | inhibition at […] (USP28Δtip Q315A; [5]): 92.1% and 78.6% and 44.2%
